This note sets out measurements from ChEMBL document CHEMBL1201862, “PubChem BioAssay data set” (2004).

Test systems include NCI/ADR-RES; SN12C; MDA-MB-435; NCI-H522; SNB-75; HCT-15; HOP-62; ACHN; OVCAR-8; NCI-H23; SNB-19; 786-0; UACC-62; SK-MEL-2; COLO 205; SF-295; TK-10; OVCAR-5; HL-60.
What all share (test): NCI-60 cell line screen, 48 h

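Interpolation was linear, between the two tested concentrations surrounding the appropriate level; five concentrations were tested over 48 hours in 96-well plates. At the GI50, growth is halved.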 Activity calls are given as the source filed them. Rule as the data show it: active = GI50 up to about 1.1 µM and inactive = higher.

With `C=CCN1C(=O)/C(=C/c2ccccc2)N=C1SC/C=C/C`, the GI50 was 49.4 µM (inactive) in the test with NCI/ADR-RES; 40.2 µM (inactive) with SN12C; 40.8 µM (inactive) in the test on MDA-MB-435; 33 µM (inactive) in the test on NCI-H522; 46.2 µM (inactive) with SNB-75; 47.5 µM with HCT-15. Moreover, the GI50 with HOP-62 is > 100 µM (inactive); with ACHN, 80.4 µM (inactive); in the test on OVCAR-8 it was 45.1 µM (inactive); with NCI-H23, 58.7 µM (inactive); in the test with SNB-19, > 100 µM (inactive); with 786-0 it was 42.7 µM (inactive). For the same compound, the GI50 was 51.5 µM (inactive) in the test on UACC-62; 26.2 µM (inactive) with SK-MEL-2; 52.2 µM (inactive) in the test with COLO 205; 61.2 µM (inactive) in the test with SF-295; 79.1 µM (inactive) in the test on TK-10.
With `COc1ccc(/C(C)=C2\CCCN(Cc3ccccc3)C2)cc1`, the GI50 in the test on NCI/ADR-RES is 22.6 µM (inactive); in the test with MDA-MB-435, 20.7 µM (inactive); in the test with NCI-H522, 13.4 µM (inactive); in the test on SNB-75, 24.2 µM (inactive); in the test on OVCAR-5 it was 31.4 µM (inactive); in the test on HCT-15, 20.3 µM. Further, the GI50 with HOP-62 is 18.3 µM (inactive); in the test on HL-60, 23.2 µM (inactive); with ACHN, 28.1 µM (inactive); with OVCAR-8, 18.3 µM (inactive); in the test with NCI-H23, 25.8 µM (inactive); in the test on SNB-19 it was 22.9 µM (inactive). For the same compound, the GI50 was 19.2 µM (inactive) in the test with 786-0; 19.8 µM (inactive) in the test with UACC-62; 19.1 µM (inactive) in the test on SK-MEL-2; 17.5 µM (inactive) in the test with COLO 205; 16.5 µM (inactive) in the test with SF-295; 38.8 µM (inactive) in the test on TK-10.
For `CCOC(=O)/C(C#N)=C/c1ccnc2ccccc12`, the GI50 in the test with NCI/ADR-RES is 13.5 µM (inactive); in the test on SN12C, 76.4 µM (inactive); with MDA-MB-435, 37.2 µM (inactive); in the test with NCI-H522 it was > 100 µM (inactive); in the test on SNB-75 it was > 100 µM (inactive); in the test with OVCAR-5, > 100 µM (inactive). Moreover, the GI50 was 31.9 µM with HCT-15; > 100 µM (inactive) in the test with HOP-62; > 100 µM (inactive) with ACHN; 10.4 µM (inactive) with OVCAR-8; 31.8 µM (inactive) in the test on NCI-H23; 81.7 µM (inactive) with SNB-19. Besides, the GI50 was 61.9 µM (inactive) in the test with 786-0; > 100 µM (inactive) with UACC-62; > 100 µM (inactive) with SK-MEL-2; > 100 µM (inactive) with COLO 205; 93.1 µM (inactive) in the test on SF-295; > 100 µM (inactive) in the test on TK-10.
Turning to `COc1cc(CNc2nc3ccccc3n2Cc2ccccc2)cc(CN2CCOCC2)c1O`, the GI50 in the test with NCI/ADR-RES is 23 µM (inactive); in the test on SN12C, 44.2 µM (inactive); in the test on MDA-MB-435 it was 22.5 µM (inactive); in the test on NCI-H522, 32.4 µM (inactive); with SNB-75, 27.9 µM (inactive); in the test on OVCAR-5 it was 26.5 µM (inactive). For the same compound, the GI50 with HCT-15 is 29.6 µM; with HOP-62 it was 28.6 µM (inactive); with ACHN it was 39.6 µM (inactive); in the test on OVCAR-8 it was 32.1 µM (inactive); in the test on NCI-H23, 60.7 µM (inactive); with SNB-19, 61.8 µM (inactive). Moreover, the GI50 with 786-0 is 16.7 µM (inactive); with UACC-62, 22.9 µM (inactive); in the test with SK-MEL-2, 22.4 µM (inactive); with COLO 205, 20.9 µM (inactive); in the test on SF-295, 19.3 µM (inactive); in the test on TK-10 it was 23.9 µM (inactive).
Turning to `N#Cc1cnc(N)nc1NCC1(CO)CC(CCc2ccccc2)C1` (stereo not drawn), the GI50 in the test with NCI/ADR-RES is 9.95 µM (inactive); in the test with SN12C, > 100 µM (inactive); in the test with MDA-MB-435 it was 25.2 µM (inactive); in the test with NCI-H522 it was > 55.2 µM (inactive); in the test on SNB-75, 20.8 µM (inactive); with OVCAR-5, > 100 µM (inactive). In addition, the GI50 is above 100 µM with HCT-15; 58.1 µM (inactive) in the test on HOP-62; > 33.5 µM (inactive) in the test with ACHN; 47.3 µM (inactive) in the test with OVCAR-8; 63.4 µM (inactive) in the test with NCI-H23; 55.3 µM (inactive) with SNB-19. Also, the GI50 in the test on 786-0 is > 85.5 µM (inactive); with UACC-62, > 100 µM (inactive); in the test on SK-MEL-2, > 100 µM (inactive); in the test with COLO 205, > 100 µM (inactive); in the test on SF-295 it was 18.5 µM (inactive); with TK-10, > 61.5 µM (inactive).
For `CCOC(=O)C(Cc1ccc2c(c1)CCC2)Cc1ccc2c(c1)CCC2`, the GI50 in the test with NCI/ADR-RES was 73.1 µM (inactive); in the test with MDA-MB-435, 42 µM (inactive); in the test on NCI-H522 it was 44.9 µM (inactive); with SNB-75, > 100 µM (inactive); in the test on OVCAR-5, > 100 µM (inactive); in the test on HCT-15, above 100 µM. The GI50 in the test with HOP-62 is > 100 µM (inactive); with HL-60 it was 25.9 µM (inactive); in the test on ACHN it was > 100 µM (inactive); in the test with OVCAR-8 it was > 100 µM (inactive); in the test with NCI-H23, 69 µM (inactive); in the test with SNB-19 it was > 100 µM (inactive). Further, the GI50 in the test on 786-0 was > 100 µM (inactive); in the test with SK-MEL-2, > 100 µM (inactive); with SF-295, 89.9 µM (inactive); in the test with TK-10, > 100 µM (inactive).
Regarding `C[C@@H]1OC(=O)C[C@H]2CC(=O)N(CCc3cn(S(=O)(=O)C(F)(F)F)c4ccccc34)C[C@@H]21`, the GI50 in the test with NCI/ADR-RES is > 100 µM (inactive); in the test with MDA-MB-435 it was > 100 µM (inactive); with NCI-H522, > 100 µM (inactive); with SNB-75, > 100 µM (inactive); in the test on OVCAR-5 it was > 100 µM (inactive); in the test with HCT-15 it was above 100 µM. The GI50 with HOP-62, in the test with ACHN, in the test with OVCAR-8, in the test with NCI-H23, in the test on SNB-19 and in the test with 786-0 was > 100 µM (inactive) throughout. Further, the GI50 in the test on UACC-62, in the test on SK-MEL-2, in the test on COLO 205, with SF-295 and in the test on TK-10 was > 100 µM (inactive) throughout.
Turning to `O=c1c2c(-c3ccccc3)onc2n(-c2ccccc2)c(=O)n1-c1ccccc1`, the GI50 was 16.9 µM (inactive) in the test with NCI/ADR-RES; > 100 µM (inactive) in the test with SN12C; > 100 µM (inactive) with MDA-MB-435; 15.7 µM (inactive) in the test with NCI-H522; 27.8 µM (inactive) with SNB-75; 16.4 µM (inactive) in the test with OVCAR-5. Also, the GI50 with HCT-15 is 15.8 µM; with HOP-62 it was 21.8 µM (inactive); in the test on ACHN, 31.2 µM (inactive); in the test on OVCAR-8, 17.5 µM (inactive); with NCI-H23, 19 µM (inactive); in the test on SNB-19, 27.4 µM (inactive). Further, the GI50 in the test on 786-0 was > 100 µM (inactive); with UACC-62, 14.5 µM (inactive); in the test on SK-MEL-2, 11 µM (inactive); in the test with COLO 205 it was > 100 µM (inactive); with SF-295, > 100 µM (inactive); in the test on TK-10 it was 14.5 µM (inactive).
Regarding `COc1ccc(C2C(C#N)=C(S)N(C3OC(COC(C)=O)C(OC(C)=O)C(OC(C)=O)C3OC(C)=O)C(C)=C2C(C)=O)cc1` (stereo not drawn), the GI50 is > 100 µM (inactive) in the test on NCI/ADR-RES; > 100 µM (inactive) in the test on SN12C; 66.4 µM (inactive) in the test with MDA-MB-435; 26.4 µM (inactive) with SNB-75; > 100 µM (inactive) in the test with OVCAR-5; above 100 µM with HCT-15. Moreover, the GI50 with HOP-62 was > 100 µM (inactive); in the test with HL-60, 46.3 µM (inactive); with ACHN, 77.1 µM (inactive); in the test on NCI-H23, > 100 µM (inactive); in the test with SNB-19, > 100 µM (inactive); with 786-0, > 100 µM (inactive). The GI50 in the test on UACC-62 is 57.5 µM (inactive); in the test on SK-MEL-2 it was > 100 µM (inactive); with COLO 205, 58.2 µM (inactive); in the test on SF-295, > 100 µM (inactive); with TK-10 it was > 100 µM (inactive).
Consider `O=c1[nH]c(=O)n(C2CC(O)C(CO)O2)cc1OC/C=C/Cc1ccccc1` (stereo not drawn), for which the GI50 with NCI/ADR-RES, in the test on SN12C, in the test on MDA-MB-435, in the test with NCI-H522, in the test with SNB-75 and in the test with OVCAR-5 was > 100 µM (inactive) in each case. Besides, the GI50 was above 100 µM in the test on HCT-15; > 100 µM (inactive) in the test with HOP-62; > 100 µM (inactive) with HL-60; > 100 µM (inactive) in the test with ACHN; > 100 µM (inactive) with OVCAR-8; > 100 µM (inactive) in the test with NCI-H23. The GI50 in the test on SNB-19, with 786-0, in the test on UACC-62, in the test with COLO 205, in the test with SF-295 and with TK-10 was > 100 µM (inactive) each time.
Regarding `COc1cc(C2=NNC(=O)c3ccccc3N2c2nc(-c3cccs3)nc3ccc(Br)cc23)cc(OC)c1OC`, the GI50 is 4.91 µM (inactive) with NCI/ADR-RES; 18.9 µM (inactive) in the test with SN12C; 6.82 µM (inactive) in the test with MDA-MB-435; 9.06 µM (inactive) in the test on NCI-H522; 55 µM (inactive) in the test with SNB-75; 40.1 µM (inactive) in the test on OVCAR-5. Further, the GI50 in the test with HCT-15 is 4.38 µM; in the test with HOP-62, 15.6 µM (inactive); with ACHN, 7.11 µM (inactive); in the test on OVCAR-8 it was 4.62 µM (inactive); with NCI-H23, 7.11 µM (inactive); in the test with SNB-19, 22.6 µM (inactive). Moreover, the GI50 in the test on 786-0 was 6.95 µM (inactive); in the test on UACC-62, 12.4 µM (inactive); in the test with SK-MEL-2, 31.2 µM (inactive); with COLO 205, 5.24 µM (inactive); with SF-295, 5.06 µM (inactive); in the test on TK-10, 23.2 µM (inactive).
